Source: patent US12629363B2, “Prophylaxis and treatment of angioedema” (PHARVARIS GMBH, priority 2020, dated 2026)
Where two headings read alike, the source gives them in different places.

Legend:
[1] = Ascending dose study 22-50 mg in healthy volunteers, PK (Example 4); type: in vivo, human
[2] = Population 2-compartment PK model with oral absorption (BK challenge study); type: in vivo, human; details: population PK model parameter estimate (CV %)
Method: A PK/PD analysis using the same approach as in the icatibant evaluation was conducted. […] PK was analyzed using a two-compartment body model with first-order oral absorption and a lag time; results are shown in Table 4. For the PK/PD model a simple Emax-model with a direct link was utilized. The PK/PD model was used to simulate PK profiles (N=1000) and calculate probability of durations of effect as well as to visualize effect-time profiles; see FIGS. 4 and 5.

Plasma protein binding = type: in vitro ADME; details: human
mouse B2 receptor = molecular target: T1, mouse B2 receptor (Mus musculus, UniProt P32299); test: Antagonist potency in cells expressing mouse B2 receptor; type: cell-based; details: compared with human B2 receptor
T1 construct: expressed in transfected cells
T1 sequence (P32299 1-392): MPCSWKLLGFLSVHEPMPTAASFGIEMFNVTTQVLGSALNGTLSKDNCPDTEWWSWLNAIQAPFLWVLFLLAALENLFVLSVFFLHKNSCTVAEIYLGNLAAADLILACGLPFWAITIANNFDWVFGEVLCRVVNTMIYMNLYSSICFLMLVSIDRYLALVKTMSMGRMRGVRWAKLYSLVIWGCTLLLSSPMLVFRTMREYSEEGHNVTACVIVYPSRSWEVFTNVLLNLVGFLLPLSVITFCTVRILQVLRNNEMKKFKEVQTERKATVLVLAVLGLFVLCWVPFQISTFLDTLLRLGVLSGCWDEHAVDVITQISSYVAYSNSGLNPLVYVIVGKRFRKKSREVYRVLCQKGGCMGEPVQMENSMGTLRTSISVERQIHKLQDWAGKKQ
Text: (§1) The bradykinin B2 receptor is well known for its species selective pharmacology (Paquet et al., Br. J. Pharmacol. (126), 1083-1090, 1999 (DOI: 10.1038/sj.bjp.0702403); Burgess et al., Br. J. Pharmacol. (129), 77-86, 2000 (DOI: 10.1038/sj.bjp.0703012)). […] Pharmacol. 11:916; DOI: 10.3389/fphar.2020.00916.

dog B2 receptor = test: Antagonist potency in cells expressing dog B2 receptor; type: cell-based; details: compared with human B2 receptor
Text: as §1

BK B2 receptor = molecular target: T2, BK B2 receptor (Homo sapiens, UniProt P30411); test: Bradykinin challenge study, PK/PD (Example 3); type: in vivo; details: for Time plasma level above EC85 at a 75% confidence level / Time plasma level above EC85 at a 75% confidence level, DBP / Time plasma level above EC85 at a 75% confidence level, MAP: modeling and simulation
T2 sequence (P30411 1-391): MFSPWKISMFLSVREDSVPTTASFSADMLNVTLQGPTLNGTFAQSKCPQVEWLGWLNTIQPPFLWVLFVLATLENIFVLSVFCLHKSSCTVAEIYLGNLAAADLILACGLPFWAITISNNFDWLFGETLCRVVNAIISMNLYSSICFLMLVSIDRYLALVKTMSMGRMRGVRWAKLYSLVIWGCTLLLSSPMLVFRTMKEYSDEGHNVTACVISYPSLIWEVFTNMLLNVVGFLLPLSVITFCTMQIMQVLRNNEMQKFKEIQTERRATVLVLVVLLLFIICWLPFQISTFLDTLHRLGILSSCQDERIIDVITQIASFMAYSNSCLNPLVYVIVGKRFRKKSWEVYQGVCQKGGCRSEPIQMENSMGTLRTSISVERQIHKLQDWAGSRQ
Method: The compound (12 and 22 mg) was administered orally (p.o.) to 16 healthy volunteers. BK was injected intravenously prior to oral administration of the compound, i.e. BK predosing challenge, and at 1, 4, 8, 12 and 24 hours after oral administration (dosing) of the 12 and 22 mg single dose, respectively. BK injections were administered to induce cardiovascular responses in the volunteers. The cardiovascular responses were monitored, and blood samples were drawn over 24 hours for PK assessment. The PD outcome variables were measured from 5 min before until 5 min after each BK bolus. A % inhibition-of-the-baseline average-to-peak effect was calculated and used as the PD outcome.
Immediately after BK injection a short-lived change in blood pressure, heart rate and cardiac output can be recorded.
PK was analyzed using a two-compartment body model with first-order oral absorption and a lag time; results are shown in Table 4. For the PK/PD model a simple Emax-model with a direct link was utilized. The PK/PD model was used to simulate PK profiles (N=1000) and calculate probability of durations of effect as well as to visualize effect-time profiles; see FIGS. 4 and 5.

[3] = Single ascending dose study in healthy volunteers, safety and tolerability (Example 2); type: in vivo, human
Method: Safety was assessed by physical examination, vital signs, adverse events, safety laboratory and electrocardiogram (ECG) until 72 h post-dosing.

clinical = details: human, in vivo, po, 12 mg
Method: Thirteen healthy subjects were enrolled and completed the study.
On Days 4 to 8, subjects received once daily oral doses of 200 mg itraconazole one hour before start of a standard meal.
Trough plasma concentrations of itraconazole were determined by taking predose plasma samples on Days 4-7, to document exposure to itraconazole.

[4] = 22 to 50 mg (factor 2.27 increase), after a standardized breakfast
[5] = plasma concentration, PD in BK challenge
[6] = 22 mg, after HCHF breakfast, N = 6

[2H][C@@](C)(NC(=O)COC(F)F)c1cc(F)cc(Cl)c1COc1cccc2c(-c3ncnn3C)cc(C)nc12 [compound of formula (I)]
fold increase for mean AUC0-24h [1, 4]: 2.39 fold
fold increase for mean Cmax [1, 4]: 2.37 fold
dose proportionality of PK ([1]; 22 to 50 mg after a standardized breakfast): dose-proportional PK
change in AUCinf after a standardized breakfast ([1]; compared to fasting conditions): did not show a significant change
decrease in Cmax after a standardized breakfast ([1]; compared to fasting conditions): 40-50%
C12h and C24h plasma concentration, fed vs fasting ([1]; human, in vivo): higher under fed conditions
CL/F apparent clearance [2]: 34.5 (5.9%) L/h
Ka first order absorption rate constant [2]: 7.97 (25.1%) 1/h
Q/F apparent inter-compartmental clearance [2]: 10.7 (15.8%) L/h
Tlag lag time [2]: 0.181 (9.9%) h
V2/F apparent volume for the central compartment [2]: 101 (4.5%) L
V3/F apparent volume for the peripheral compartment [2]: 35.9 (10.7%) L
fraction unbound (Plasma protein binding): 0.038
fold less potent towards the mouse B2 receptor (mouse B2 receptor): more than 3000 fold
fold less potent towards the dog B2 receptor (dog B2 receptor): 18,000 fold
time stayed above EC85 (BK B2 receptor; 12 mg oral dose): 7 h
Time plasma level above EC85 at a 75% confidence level (BK B2 receptor; 12 mg p.o.): 6.5 h
Time plasma level above EC85 at a 75% confidence level, DBP (BK B2 receptor; 12 mg p.o.): 7.5 h
Time plasma level above EC85 at a 75% confidence level, MAP (BK B2 receptor; 12 mg p.o.): 7 h
duration of effect relative to the 12 mg dose (BK B2 receptor; 22 mg oral dose): approximately twice as long
Time plasma level above EC85 at a 75% confidence level (BK B2 receptor; 22 mg p.o.): 9.5 h
Time plasma level above EC85 at a 75% confidence level, DBP (BK B2 receptor; 22 mg p.o.): 10 h
Time plasma level above EC85 at a 75% confidence level, MAP (BK B2 receptor; 22 mg p.o.): 10 h
potency relative to icatibant based on plasma concentrations (BK B2 receptor; BK challenge EC50/EC85): approximately four-fold more potent than icatibant
EC50 (BK B2 receptor; corrected for plasma protein binding 96.2%, read-out: free plasma concentration associated with EC50 of 2.4 ng/ml): 0.17 nM
intrinsic PD potency at the K B2 receptor, fold higher than icatibant (BK B2 receptor; in vivo): about 25 fold
Estimated EC85, Cardiac output (BK B2 receptor; [5]): 0.00952 µg/mL
Estimated EC85, Composite average (BK B2 receptor; [5]): 0.0138 µg/mL
Estimated EC85, Diastolic blood pressure (BK B2 receptor; [5]): 0.01326 µg/mL
Estimated EC85, Heart rate (BK B2 receptor; [5]): 0.0187 µg/mL
EC50 (BK B2 receptor; plasma concentration, PD in BK challenge, read-out: Estimated EC50, Cardiac output (converted)): 3.14 nM
EC50 (BK B2 receptor; plasma concentration, PD in BK challenge, read-out: Estimated EC50, Composite average (converted)): 4.49 nM
EC50 (BK B2 receptor; plasma concentration, PD in BK challenge, read-out: Estimated EC50, Diastolic blood pressure (converted)): 4.37 nM
EC50 (BK B2 receptor; plasma concentration, PD in BK challenge, read-out: Estimated EC50, Heart rate (converted)): 6.17 nM
Any adverse effects ([3]; 1 mg, fasted, N = 6): 2 (33.3%) n (%)
Any related adverse effects ([3]; 1 mg, fasted, N = 6): 0 n (%)
Any serious adverse effects ([3]; 1 mg, fasted, N = 6): 0 n (%)
Any adverse effects ([3]; 2 mg, fasted, N = 6): 1 (16.7%) n (%)
Any related adverse effects ([3]; 2 mg, fasted, N = 6): 0 n (%)
Any serious adverse effects ([3]; 2 mg, fasted, N = 6): 0 n (%)
Any adverse effects ([3]; 4.5 mg, fasted, N = 6): 1 (16.7%) n (%)
Any related adverse effects ([3]; 4.5 mg, fasted, N = 6): 0 n (%)
Any serious adverse effects ([3]; 4.5 mg, fasted, N = 6): 0 n (%)
Any adverse effects ([3]; 12 mg, fasted, N = 14): 5 (35.7%) n (%)
Any related adverse effects ([3]; 12 mg, fasted, N = 14): 2 (14.3%) n (%)
Any serious adverse effects ([3]; 12 mg, fasted, N = 14): 0 n (%)
Any adverse effects [3, 6]: 1 (16.7%) n (%)
Any related adverse effects [3, 6]: 0 n (%)
Any serious adverse effects [3, 6]: 0 n (%)
Any adverse effects ([3]; 22 mg, fasted, N = 14): 2 (14.3%) n (%)
Any related adverse effects ([3]; 22 mg, fasted, N = 14): 1 (7.1%) n (%)
Any serious adverse effects ([3]; 22 mg, fasted, N = 14): 0 n (%)
subjects with treatment-related adverse events ([3]; 12 or 22 mg, gastrointestinal, mild severity): three
blood pressure fluctuations and orthostatic hypotension ([3]; single oral doses up to 22 mg): no clinically relevant fluctuations of blood pressure and no orthostatic hypotension
changes in hematology, clinical chemistry, vital signs, or ECG ([3]; single oral doses up to 22 mg): no apparent trends or dose-related changes
safety and tolerability ([3]; single oral doses up to 22 mg): safe and well tolerated
Tmax (clinical): 0.5 to 1 h
half-life (clinical): 4.31 h
